Results: PubChem BioAssay AID2060484 (Molecular Pharmacology Branch, DTP, NCI, 2025)

Test system: SUM149PT spheroids with HUVEC/MSC, viability
Test: Anticancer human tumor SUM149PT cell line growth inhibition [GQUAD];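 also: spheroids exposed to drugs for seven days before readout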;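 as to viability, T/C: percent viability relative to DMSO vehicle control taken as 100%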
Settings: for IC50: curve of first compound; for viability, T/C: stronger effect = lower value
Outline: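 Tumor cells were grown as complex spheroids with HUVEC endothelial cells and mesenchymal stem cells as stroma. G-quadruplex stabilizers were combined with targeted agents over half-log dilutions from near the clinical Cmax, or from 10 microM.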

[1] = second compound 0.0316 µM, first compound 0.0316 µM
[2] = second compound 0.0316 µM, first compound 0.316 µM
[3] = second compound 0.1 µM, first compound 0.0316 µM
[4] = second compound 0.1 µM, first compound 0.316 µM
[5] = second compound 0.316 µM, first compound 0.0316 µM
[6] = second compound 0.316 µM, first compound 0.316 µM
[7] = second compound 1 µM, first compound 0.0316 µM
[8] = second compound 1 µM, first compound 0.316 µM
[9] = second compound 3.16 µM, first compound 0.0316 µM
[10] = second compound 3.16 µM, first compound 0.316 µM
[11] = second compound 10 µM, first compound 0.0316 µM
[12] = second compound 10 µM, first compound 0.316 µM

COc1cc(C2c3cc4c(cc3C(OC3OC5COC(C)OC5C(O)C3O)C3COC(=O)C23)OCO4)cc(OC)c1O (centres undefined) + Cc1[nH]c2ccc(F)cc2c1-c1nc2c3cccnc3c3ncccc3c2[nH]1
IC50 (second compound 0.0316 µM): 875 nM
IC50 (second compound 0.1 µM): 554 nM
IC50 (second compound 0.316 µM): 784 nM
IC50 (second compound 1 µM): 830 nM
IC50 (second compound 3.16 µM): 807 nM
IC50 (second compound 10 µM): 607 nM
viability, T/C [1]: 102%
viability, T/C (second compound 0.0316 µM, first compound 0.1 µM): 86.1%
viability, T/C [2]: 56.3%
viability, T/C (second compound 0.0316 µM, first compound 1 µM): 49.9%
viability, T/C (second compound 0.0316 µM, first compound 3.16 µM): 38.5%
viability, T/C (second compound 0.0316 µM, first compound 10 µM): 18.4%
viability, T/C [3]: 105%
viability, T/C (second compound 0.1 µM, first compound 0.1 µM): 77.7%
viability, T/C [4]: 50.7%
viability, T/C (second compound 0.1 µM, first compound 1 µM): 47.1%
viability, T/C (second compound 0.1 µM, first compound 3.16 µM): 36.8%
viability, T/C (second compound 0.1 µM, first compound 10 µM): 18.5%
viability, T/C [5]: 93.2%
viability, T/C (second compound 0.316 µM, first compound 0.1 µM): 82.3%
viability, T/C [6]: 54.4%
viability, T/C (second compound 0.316 µM, first compound 1 µM): 46.9%
viability, T/C (second compound 0.316 µM, first compound 3.16 µM): 38.2%
viability, T/C (second compound 0.316 µM, first compound 10 µM): 15.4%
viability, T/C [7]: 97.6%
viability, T/C (second compound 1 µM, first compound 0.1 µM): 84.4%
viability, T/C [8]: 51.3%
viability, T/C (second compound 1 µM, first compound 1 µM): 54%
viability, T/C (second compound 1 µM, first compound 3.16 µM): 36.5%
viability, T/C (second compound 1 µM, first compound 10 µM): 13.5%
viability, T/C [9]: 88.2%
viability, T/C (second compound 3.16 µM, first compound 0.1 µM): 77.3%
viability, T/C [10]: 58.2%
viability, T/C (second compound 3.16 µM, first compound 1 µM): 49.3%
viability, T/C (second compound 3.16 µM, first compound 3.16 µM): 33.3%
viability, T/C (second compound 3.16 µM, first compound 10 µM): 12.9%
viability, T/C [11]: 81.9%
viability, T/C (second compound 10 µM, first compound 0.1 µM): 74.7%
viability, T/C [12]: 48.2%
viability, T/C (second compound 10 µM, first compound 1 µM): 49.4%
viability, T/C (second compound 10 µM, first compound 3.16 µM): 33.5%
viability, T/C (second compound 10 µM, first compound 10 µM): 14.3%

Cn1ncnc1[C@H]1c2n[nH]c(=O)c3cc(F)cc(c23)N[C@@H]1c1ccc(F)cc1 + Cc1[nH]c2ccc(F)cc2c1-c1nc2c3cccnc3c3ncccc3c2[nH]1
IC50 (second compound 0.0316 µM): > 316 nM
IC50 (second compound 0.1 µM): > 316 nM
IC50 (second compound 0.316 µM): 305 nM
IC50 (second compound 1 µM): > 316 nM
IC50 (second compound 3.16 µM): > 316 nM
IC50 (second compound 10 µM): > 316 nM
viability, T/C (second compound 0.0316 µM, first compound 0.000999 µM): 105%
viability, T/C (second compound 0.0316 µM, first compound 0.00316 µM): 93.4%
viability, T/C (second compound 0.0316 µM, first compound 0.00999 µM): 103%
viability, T/C [1]: 88%
viability, T/C (second compound 0.0316 µM, first compound 0.0999 µM): 69.8%
viability, T/C [2]: 57.3%
viability, T/C (second compound 0.1 µM, first compound 0.000999 µM): 90.4%
viability, T/C (second compound 0.1 µM, first compound 0.00316 µM): 96.2%
viability, T/C (second compound 0.1 µM, first compound 0.00999 µM): 87.6%
viability, T/C [3]: 86.9%
viability, T/C (second compound 0.1 µM, first compound 0.0999 µM): 73.2%
viability, T/C [4]: 56.7%
viability, T/C (second compound 0.316 µM, first compound 0.000999 µM): 109%
viability, T/C (second compound 0.316 µM, first compound 0.00316 µM): 90.3%
viability, T/C (second compound 0.316 µM, first compound 0.00999 µM): 95.2%
viability, T/C [5]: 89.8%
viability, T/C (second compound 0.316 µM, first compound 0.0999 µM): 65.4%
viability, T/C [6]: 50%
viability, T/C (second compound 1 µM, first compound 0.000999 µM): 94.6%
viability, T/C (second compound 1 µM, first compound 0.00316 µM): 94.5%
viability, T/C (second compound 1 µM, first compound 0.00999 µM): 96.3%
viability, T/C [7]: 88%
viability, T/C (second compound 1 µM, first compound 0.0999 µM): 66%
viability, T/C [8]: 51%
viability, T/C (second compound 3.16 µM, first compound 0.000999 µM): 88.6%
viability, T/C (second compound 3.16 µM, first compound 0.00316 µM): 90.4%
viability, T/C (second compound 3.16 µM, first compound 0.00999 µM): 96.2%
viability, T/C [9]: 78%
viability, T/C (second compound 3.16 µM, first compound 0.0999 µM): 67.7%
viability, T/C [10]: 50%
viability, T/C (second compound 10 µM, first compound 0.000999 µM): 85.3%
viability, T/C (second compound 10 µM, first compound 0.00316 µM): 77.7%
viability, T/C (second compound 10 µM, first compound 0.00999 µM): 88.8%
viability, T/C [11]: 81.8%
viability, T/C (second compound 10 µM, first compound 0.0999 µM): 65.4%
viability, T/C [12]: 50.9%
